# Measured values from patent publication US12077503B2, “Substituted cyclic amides and their use as herbicides” (FMC CORPORATION, priority 2015, dated 2024).
# Where two headings read alike, the source gives them in different places.
# Tests used:
# Type in all cases: in vivo
# [1] = system: sedge, umbrella (small-flower umbrella sedge, Cyperus difformis); test: Test B flooded paddy test; conditions: Cyperus difformis, Flood, 250 g ai/ha
# Procedure, shortened: (§1)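 Percent control, visually estimated after 13–15 d in the greenhouse on a 0–100 basis, compares treated pots with untreated ones; compound was put into paddy water 3 cm above the soil when plants had two leaves.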
# [2] = system: ducksalad (Heteranthera limosa); test: Test B flooded paddy test; conditions: Heteranthera limosa, Flood, 250 g ai/ha
# Procedure, shortened: as §1
# [3] = system: barnyardgrass (Echinochloa crus-galli); test: Test B flooded paddy test; conditions: Echinochloa crus-galli, Flood, 250 g ai/ha
# Procedure, shortened: as §1
# rice (Oryra sativa) = test: Test B flooded paddy test; conditions: Oryza sativa, Flood, 250 g ai/ha
# Procedure, shortened: as §1
# Kochia (Kochia scoparia) = test: Test A preemergence; conditions: Bassia scoparia, pre-emergence, 240 h, read-out: Plant response rating, Kochia; for pest or weed control at 125 g/ha: 125 g ai/ha; for pest or weed control at 500 g/ha: 500 g ai/ha
# Procedure, shortened: (§2)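 Visual injury scores from 0, no effect, to 100, complete control, were assigned versus untreated controls roughly 10 d after treatment in the greenhouse. Test chemicals, formulated with surfactant in a non-phytotoxic solvent, were applied to planted seeds as a preemergence soil spray or postemergence to one- to two-leaf plants 2 to 10 cm tall, in loam–sand soil.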
# [4] = system: pigweed (Amaranthus retroflexus); test: Test A preemergence; conditions: Amaranthus retroflexus, pre-emergence, 240 h, read-out: Plant response rating, Pigweed; for pest or weed control at 125 g/ha: 125 g ai/ha; for pest or weed control at 500 g/ha: 500 g ai/ha
# [5] = system: ragweed (common ragweed, Ambrosia elatior); test: Test A preemergence; conditions: Ambrosia artemisiifolia, pre-emergence, 240 h, read-out: Plant response rating, Ragweed; for pest or weed control at 125 g/ha: 125 g ai/ha; for pest or weed control at 500 g/ha: 500 g ai/ha
# Procedure, shortened: as §2
# [6] = system: giant foxtail (Setaria faberii); test: Test A preemergence; conditions: Setaria faberi, pre-emergence, 240 h, read-out: Plant response rating, Foxtail, Giant; for pest or weed control at 125 g/ha: 125 g ai/ha; for pest or weed control at 500 g/ha: 500 g ai/ha
# Procedure, shortened: as §2
# [7] = system: ryegrass, Italian (Italian ryegrass, Lolium multiflorum); test: Test A preemergence; conditions: Lolium multiflorum, pre-emergence, 240 h, read-out: Plant response rating, Ryegrass, Italian; for pest or weed control at 125 g/ha: 125 g ai/ha
# Procedure, shortened: as §2
# [8] = system: barnyardgrass (Echinochloa crus-galli); test: Test A preemergence; conditions: Echinochloa crus-galli, pre-emergence, 240 h, read-out: Plant response rating, Barnyardgrass; for pest or weed control at 125 g/ha: 125 g ai/ha; for pest or weed control at 500 g/ha: 500 g ai/ha
# Procedure, shortened: as §2
# [9] = system: pigweed (Amaranthus retroflexus); test: Test A postemergence; conditions: Amaranthus retroflexus, post-emergence, 240 h; for pest or weed control at 125 g/ha: 125 g ai/ha
# Procedure, shortened: as §2
# [10] = system: giant foxtail (Setaria faberii); test: Test A postemergence; conditions: Setaria faberi, post-emergence, 240 h; for pest or weed control at 125 g/ha: 125 g ai/ha
# Procedure, shortened: as §2
# [11] = system: ryegrass, Italian (Italian ryegrass, Lolium multiflorum); test: Test A postemergence; conditions: Lolium multiflorum, post-emergence, 240 h; for pest or weed control at 125 g/ha: 125 g ai/ha
# Procedure, shortened: as §2
# [12] = system: wheat (Triticum aestivum); test: Test A postemergence; conditions: Triticum aestivum, post-emergence, 240 h; for plant injury at 125 g/ha: 125 g ai/ha
# Procedure, shortened: as §2
# [13] = system: blackgrass (Alopecurus myosuroides); test: Test A postemergence; conditions: Alopecurus myosuroides, post-emergence, 240 h; for pest or weed control at 125 g/ha: 125 g ai/ha
# Procedure, shortened: as §2
# [14] = preemergence, visual rating after approx. 10 d, 0 to 100 scale where 0 is no effect and 100 is complete control
# [15] = preemergence, 0 to 100 scale, 0 = no effect, 100 = complete control
# [16] = preemergence, 0 to 100 scale (0 no effect, 100 complete control)
# [17] = Preemergence, 0 to 100 scale (0 no effect, 100 complete control)
structure (smiles),measurement,setting,value
CN1C[C@H](c2cc(F)cc(F)c2)[C@@H](C(=O)Nc2c(F)cccc2F)C1=O [Compound 759],pest or weed control at 250 g/ha,"[1]; scale of 0 to 100 where 0 is no effect and 100 is complete control, read-out: Sedge, Umbrella plant response rating",0%
same,pest or weed control at 250 g/ha,"[2]; scale of 0 to 100 where 0 is no effect and 100 is complete control, read-out: Ducksalad plant response rating",0%
same,pest or weed control at 250 g/ha,"[3]; scale of 0 to 100 where 0 is no effect and 100 is complete control, read-out: Barnyardgrass plant response rating",0%
same,pest or weed control at 250 g/ha,"rice (Oryra sativa); scale of 0 to 100 where 0 is no effect and 100 is complete control, read-out: Rice plant response rating",0%
same,pest or weed control at 125 g/ha,Kochia (Kochia scoparia); [14],0%
same,pest or weed control at 500 g/ha,Kochia (Kochia scoparia); [15],20%
same,pest or weed control at 125 g/ha,[4]; [14],0%
same,pest or weed control at 500 g/ha,[4]; [15],0%
same,pest or weed control at 125 g/ha,[5]; [14],0%
same,pest or weed control at 500 g/ha,[5]; [15],0%
same,pest or weed control at 125 g/ha,[6]; [14],70%
same,pest or weed control at 500 g/ha,[6]; [15],100%
same,pest or weed control at 125 g/ha,[7]; [14],0%
same,pest or weed control at 125 g/ha,[8]; [14],90%
same,pest or weed control at 500 g/ha,[8]; [15],100%
same,pest or weed control at 125 g/ha,"[9]; postemergence, visual injury after approximately 10 d, 0 to 100 scale (0 no effect, 100 complete control), read-out: Plant response rating, Pigweed",0%
same,pest or weed control at 125 g/ha,"[10]; postemergence, visual injury after approximately 10 d, 0 to 100 scale (0 no effect, 100 complete control), read-out: Plant response rating, Foxtail, Giant",20%
same,pest or weed control at 125 g/ha,"[11]; postemergence, visual injury after approximately 10 d, 0 to 100 scale (0 no effect, 100 complete control), read-out: Plant response rating, Ryegrass, Italian",0%
same,plant injury at 125 g/ha,"[12]; postemergence, visual injury after approximately 10 d, 0 to 100 scale (0 no effect, 100 complete control), read-out: Plant response rating, Wheat",0%
same,pest or weed control at 125 g/ha,"[13]; postemergence, visual injury after approximately 10 d, 0 to 100 scale (0 no effect, 100 complete control), read-out: Plant response rating, Blackgrass",0%
N#Cc1cc([C@H]2CNC(=O)[C@]2(O)C(=O)Nc2cccc(F)c2F)ccc1F [Compound 1374],pest or weed control at 250 g/ha,"[1]; 360 h, visually evaluated after 13 to 15 d, read-out: Plant response rating, Sedge, Umbrella (0 to 100 scale where 0 is no effect and 100 is complete control)",0%
same,pest or weed control at 250 g/ha,"[2]; 360 h, visually evaluated after 13 to 15 d, read-out: Plant response rating, Ducksalad (0 to 100 scale where 0 is no effect and 100 is complete control)",0%
same,pest or weed control at 250 g/ha,"[3]; 360 h, visually evaluated after 13 to 15 d, read-out: Plant response rating, Barnyardgrass (0 to 100 scale where 0 is no effect and 100 is complete control)",0%
same,pest or weed control at 250 g/ha,"rice (Oryra sativa); 360 h, visually evaluated after 13 to 15 d, read-out: Plant response rating, Rice (0 to 100 scale where 0 is no effect and 100 is complete control)",20%
same,pest or weed control at 500 g/ha,Kochia (Kochia scoparia); [16],0%
same,pest or weed control at 125 g/ha,Kochia (Kochia scoparia); [17],0%
same,pest or weed control at 500 g/ha,[4]; [16],0%
same,pest or weed control at 125 g/ha,[4]; [17],0%
same,pest or weed control at 500 g/ha,[5]; [16],0%
same,pest or weed control at 125 g/ha,[5]; [17],0%
same,pest or weed control at 500 g/ha,[6]; [16],0%
same,pest or weed control at 125 g/ha,[6]; [17],0%
same,pest or weed control at 500 g/ha,"[7]; 500 g ai/ha, preemergence, 0 to 100 scale (0 no effect, 100 complete control)",0%
same,pest or weed control at 125 g/ha,[7]; [17],0%
same,pest or weed control at 500 g/ha,[8]; [16],0%
same,pest or weed control at 125 g/ha,[8]; [17],0%
same,pest or weed control at 125 g/ha,"[9]; Postemergence, visual rating about 10 d after treatment, read-out: Pigweed plant response rating (0 to 100 scale)",0%
same,pest or weed control at 500 g/ha,"[9]; Postemergence, 500 g ai/ha, visual injury, 0 to 100 scale (0 no effect, 100 complete control), approx. 10 d, read-out: Plant response rating, Pigweed",0%
same,pest or weed control at 125 g/ha,"[10]; Postemergence, visual rating about 10 d after treatment, read-out: Foxtail, Giant plant response rating (0 to 100 scale)",0%
same,pest or weed control at 500 g/ha,"[10]; Postemergence, 500 g ai/ha, visual injury, 0 to 100 scale (0 no effect, 100 complete control), approx. 10 d, read-out: Plant response rating, Foxtail, Giant",0%
same,pest or weed control at 125 g/ha,"[11]; Postemergence, visual rating about 10 d after treatment, read-out: Ryegrass, Italian plant response rating (0 to 100 scale)",0%
same,pest or weed control at 500 g/ha,"[11]; Postemergence, 500 g ai/ha, visual injury, 0 to 100 scale (0 no effect, 100 complete control), approx. 10 d, read-out: Plant response rating, Ryegrass, Italian",0%
same,plant injury at 125 g/ha,"[12]; Postemergence, visual rating about 10 d after treatment, read-out: Wheat plant response rating (0 to 100 scale)",0%
same,plant injury at 500 g/ha,"[12]; Postemergence, 500 g ai/ha, visual injury, 0 to 100 scale (0 no effect, 100 complete control), approx. 10 d, read-out: Plant response rating, Wheat",0%
same,pest or weed control at 125 g/ha,"[13]; Postemergence, visual rating about 10 d after treatment, read-out: Blackgrass plant response rating (0 to 100 scale)",0%
same,pest or weed control at 500 g/ha,"[13]; Postemergence, 500 g ai/ha, visual injury, 0 to 100 scale (0 no effect, 100 complete control), approx. 10 d, read-out: Plant response rating, Blackgrass",0%
